Test results published in patent US12077503B2, “Substituted cyclic amides and their use as herbicides” (FMC CORPORATION, priority 2015, dated 2024).

What was measured:
Type in all cases: in vivo
[1] = tested on: barnyardgrass (Echinochloa crus-galli); assay: Test G Pre-Emergence Protocol; conditions: Echinochloa crus-galli, pre-emergence, 312 h, evaluated after 13 days; for pest or weed control at 15.625 g/ha: 15.625 g ai/ha; for pest or weed control at 15.625 g/ha / pest or weed control at 250 g/ha: read-out: Barnyardgrass damage rating (100=total damage to plant; 0=no damage to plant); for pest or weed control at 62.5 g/ha: 62.5 g ai/ha, 100=total damage to plant, 0=no damage to plant, read-out: Barnyardgrass damage rating; for pest or weed control at 250 g/ha: 250 g ai/ha
Method in brief: (§1)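 Seeds were sown in standard soil and kept one day in a glasshouse (24/16° C day/night, 14 h light, 65% humidity), then sprayed with compound in acetone/water (50:50) containing 0.5% Tween 20 at 15.625, 62.5 or 250 g/ha. Damage was scored after 13 days (0 = none, 100 = total).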

[2] = tested on: corn (Zea mays); assay: Test G Pre-Emergence Protocol; conditions: Zea mays, pre-emergence, 312 h, evaluated after 13 days; for plant injury at 15.625 g/ha: 15.625 g ai/ha; for plant injury at 15.625 g/ha / plant injury at 250 g/ha: read-out: Corn damage rating (100=total damage to plant; 0=no damage to plant); for plant injury at 62.5 g/ha: 62.5 g ai/ha, 100=total damage to plant, 0=no damage to plant, read-out: Corn damage rating; for plant injury at 250 g/ha: 250 g ai/ha
Method in brief: as §1

[3] = tested on: giant foxtail (Setaria faberi); assay: Test G Pre-Emergence Protocol; conditions: Setaria faberi, pre-emergence, 312 h, evaluated after 13 days; for pest or weed control at 15.625 g/ha: 15.625 g ai/ha; for pest or weed control at 15.625 g/ha / pest or weed control at 250 g/ha: read-out: Foxtail, Giant damage rating (100=total damage to plant; 0=no damage to plant); for pest or weed control at 62.5 g/ha: 62.5 g ai/ha, 100=total damage to plant, 0=no damage to plant, read-out: Foxtail, Giant damage rating; for pest or weed control at 250 g/ha: 250 g ai/ha
Method in brief: as §1

[4] = tested on: ivy-leaved morning glory (Ipomoea hederacea); assay: Test G Pre-Emergence Protocol; conditions: Ipomoea, pre-emergence, 312 h, evaluated after 13 days; for pest or weed control at 15.625 g/ha: 15.625 g ai/ha; for pest or weed control at 15.625 g/ha / pest or weed control at 250 g/ha: read-out: Morningglory, Ivy-leaved damage rating (100=total damage to plant; 0=no damage to plant); for pest or weed control at 62.5 g/ha: 62.5 g ai/ha, 100=total damage to plant, 0=no damage to plant, read-out: Morningglory, Ivy-leaved damage rating; for pest or weed control at 250 g/ha: 250 g ai/ha
Method in brief: as §1

[5] = tested on: redroot pigweed (Amaranthus retroflexus); assay: Test G Pre-Emergence Protocol; conditions: Amaranthus retroflexus, pre-emergence, 312 h, evaluated after 13 days; for pest or weed control at 15.625 g/ha: 15.625 g ai/ha; for pest or weed control at 15.625 g/ha / pest or weed control at 250 g/ha: read-out: Pigweed, Redroot damage rating (100=total damage to plant; 0=no damage to plant); for pest or weed control at 62.5 g/ha: 62.5 g ai/ha, 100=total damage to plant, 0=no damage to plant, read-out: Pigweed, Redroot damage rating; for pest or weed control at 250 g/ha: 250 g ai/ha
Method in brief: as §1

[6] = tested on: velvetleaf (Abutilon theophrasti); assay: Test G Pre-Emergence Protocol; conditions: Abutilon theophrasti, pre-emergence, 312 h, evaluated after 13 days; for pest or weed control at 15.625 g/ha: 15.625 g ai/ha; for pest or weed control at 15.625 g/ha / pest or weed control at 250 g/ha: read-out: Velvetleaf damage rating (100=total damage to plant; 0=no damage to plant); for pest or weed control at 62.5 g/ha: 62.5 g ai/ha, 100=total damage to plant, 0=no damage to plant, read-out: Velvetleaf damage rating; for pest or weed control at 250 g/ha: 250 g ai/ha
Method in brief: as §1

[7] = tested on: barnyardgrass (Echinochloa crus-galli); assay: Test G Post-Emergence Protocol; conditions: Echinochloa crus-galli, post-emergence, 312 h, read-out: Barnyardgrass damage rating; for pest or weed control at 15.625 g/ha: 15.625 g ai/ha, evaluated after 13 days (100=total damage to plant; 0=no damage to plant); for pest or weed control at 62.5 g/ha: 62.5 g ai/ha; for pest or weed control at 62.5 g/ha / pest or weed control at 250 g/ha: evaluated after 13 days, 100=total damage to plant, 0=no damage to plant; for pest or weed control at 250 g/ha: 250 g ai/ha
Method in brief: (§2)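 Post-emergence herbicidal damage, scored visually 0–100 at 13 days. Application at 15.625, 62.5 or 250 g/ha onto 8-day-old plants grown under glasshouse control.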

[8] = tested on: corn (Zea mays); assay: Test G Post-Emergence Protocol; conditions: Zea mays, post-emergence, 312 h, read-out: Corn damage rating; for plant injury at 15.625 g/ha: 15.625 g ai/ha, evaluated after 13 days (100=total damage to plant; 0=no damage to plant); for plant injury at 62.5 g/ha: 62.5 g ai/ha; for plant injury at 62.5 g/ha / plant injury at 250 g/ha: evaluated after 13 days, 100=total damage to plant, 0=no damage to plant; for plant injury at 250 g/ha: 250 g ai/ha
Method in brief: as §2

[9] = tested on: giant foxtail (Setaria faberi); assay: Test G Post-Emergence Protocol; conditions: Setaria faberi, post-emergence, 312 h, read-out: Foxtail, Giant damage rating; for pest or weed control at 15.625 g/ha: 15.625 g ai/ha, evaluated after 13 days (100=total damage to plant; 0=no damage to plant); for pest or weed control at 62.5 g/ha: 62.5 g ai/ha; for pest or weed control at 62.5 g/ha / pest or weed control at 250 g/ha: evaluated after 13 days, 100=total damage to plant, 0=no damage to plant; for pest or weed control at 250 g/ha: 250 g ai/ha
Method in brief: as §2

[10] = tested on: ivy-leaved morning glory (Ipomoea hederacea); assay: Test G Post-Emergence Protocol; conditions: Ipomoea, post-emergence, 312 h, read-out: Morningglory, Ivy-leaved damage rating; for pest or weed control at 15.625 g/ha: 15.625 g ai/ha, evaluated after 13 days (100=total damage to plant; 0=no damage to plant); for pest or weed control at 62.5 g/ha: 62.5 g ai/ha; for pest or weed control at 62.5 g/ha / pest or weed control at 250 g/ha: evaluated after 13 days, 100=total damage to plant, 0=no damage to plant; for pest or weed control at 250 g/ha: 250 g ai/ha
Method in brief: as §2

[11] = tested on: redroot pigweed (Amaranthus retroflexus); assay: Test G Post-Emergence Protocol; conditions: Amaranthus retroflexus, post-emergence, 312 h, read-out: Pigweed, Redroot damage rating; for pest or weed control at 15.625 g/ha: 15.625 g ai/ha, evaluated after 13 days (100=total damage to plant; 0=no damage to plant); for pest or weed control at 62.5 g/ha: 62.5 g ai/ha; for pest or weed control at 62.5 g/ha / pest or weed control at 250 g/ha: evaluated after 13 days, 100=total damage to plant, 0=no damage to plant; for pest or weed control at 250 g/ha: 250 g ai/ha
Method in brief: as §2

[12] = tested on: velvetleaf (Abutilon theophrasti); assay: Test G Post-Emergence Protocol; conditions: Abutilon theophrasti, post-emergence, 312 h, read-out: Velvetleaf damage rating; for pest or weed control at 15.625 g/ha: 15.625 g ai/ha, evaluated after 13 days (100=total damage to plant; 0=no damage to plant); for pest or weed control at 62.5 g/ha: 62.5 g ai/ha; for pest or weed control at 62.5 g/ha / pest or weed control at 250 g/ha: evaluated after 13 days, 100=total damage to plant, 0=no damage to plant; for pest or weed control at 250 g/ha: 250 g ai/ha
Method in brief: as §2

| SMILES | pest or weed control at 15.625 g/ha [1] [%] | pest or weed control at 62.5 g/ha [1] [%] | pest or weed control at 250 g/ha [1] [%] | plant injury at 15.625 g/ha [2] [%] | plant injury at 62.5 g/ha [2] [%] | plant injury at 250 g/ha [2] [%] | pest or weed control at 15.625 g/ha [3] [%] | pest or weed control at 62.5 g/ha [3] [%] | pest or weed control at 250 g/ha [3] [%] | pest or weed control at 15.625 g/ha [4] [%] | pest or weed control at 62.5 g/ha [4] [%] | pest or weed control at 250 g/ha [4] [%] | pest or weed control at 15.625 g/ha [5] [%] | pest or weed control at 62.5 g/ha [5] [%] | pest or weed control at 250 g/ha [5] [%] | pest or weed control at 15.625 g/ha [6] [%] | pest or weed control at 62.5 g/ha [6] [%] | pest or weed control at 250 g/ha [6] [%] | pest or weed control at 15.625 g/ha [7] [%] | pest or weed control at 62.5 g/ha [7] [%] | also measured |
| --- | --- | --- | --- | --- | --- | --- | --- | --- | --- | --- | --- | --- | --- | --- | --- | --- | --- | --- | --- | --- | --- |
| Cc1c(F)cccc1NC(=O)[C@@H]1C(=O)N(C)C[C@H]1c1cc(Cl)c(F)c(Cl)c1 (racemic) [Compound 1792] | 30 | 70 | 80 | 0 | 20 | 50 | 80 | 80 | 90 | 0 | 0 | 0 | 0 | 0 | 0 | 0 | 0 | 0 | 30 | 70 | pest or weed control at 250 g/ha [7]: 70%; plant injury at 15.625 g/ha [8]: 20%; plant injury at 62.5 g/ha [8]: 40%; plant injury at 250 g/ha [8]: 60%; pest or weed control at 15.625 g/ha [9]: 70%; pest or weed control at 62.5 g/ha [9]: 80%; pest or weed control at 250 g/ha [9]: 80%; pest or weed control at 15.625 g/ha [10]: 10%; pest or weed control at 62.5 g/ha [10]: 30%; pest or weed control at 250 g/ha [10]: 40%; pest or weed control at 15.625 g/ha [11]: 0%; pest or weed control at 62.5 g/ha [11]: 0%; pest or weed control at 250 g/ha [11]: 0%; pest or weed control at 15.625 g/ha [12]: 0%; pest or weed control at 62.5 g/ha [12]: 20%; pest or weed control at 250 g/ha [12]: 40% |
| CN1C[C@H](c2ccc(C#N)c(C(F)(F)F)c2)[C@@H](C(=O)Nc2ccccc2S(C)(=O)=O)C1=O (racemic) [Compound 1796] | 0 | 0 | 0 | 0 | 0 | 0 | 0 | 0 | 0 | 0 | 0 | 0 | 0 | 0 | 20 | 0 | 0 | 10 | 0 | 0 | pest or weed control at 250 g/ha [7]: 0%; plant injury at 15.625 g/ha [8]: 0%; plant injury at 62.5 g/ha [8]: 0%; plant injury at 250 g/ha [8]: 0%; pest or weed control at 15.625 g/ha [9]: 0%; pest or weed control at 62.5 g/ha [9]: 0%; pest or weed control at 250 g/ha [9]: 0%; pest or weed control at 15.625 g/ha [10]: 0%; pest or weed control at 62.5 g/ha [10]: 10%; pest or weed control at 250 g/ha [10]: 10%; pest or weed control at 15.625 g/ha [11]: 0%; pest or weed control at 62.5 g/ha [11]: 10%; pest or weed control at 250 g/ha [11]: 20%; pest or weed control at 15.625 g/ha [12]: 0%; pest or weed control at 62.5 g/ha [12]: 0%; pest or weed control at 250 g/ha [12]: 0% |
| CN1C[C@H](c2cc(Cl)cc(C(F)(F)F)c2)[C@@H](C(=O)Nc2ccccc2S(C)(=O)=O)C1=O (racemic) [Compound 1797] | 40 | 60 | 80 | 10 | 50 | 70 | 60 | 80 | 90 | 0 | 10 | 20 | 0 | 0 | 60 | 0 | 20 | 70 | 30 | 70 | pest or weed control at 250 g/ha [7]: 80%; plant injury at 15.625 g/ha [8]: 10%; plant injury at 62.5 g/ha [8]: 60%; plant injury at 250 g/ha [8]: 70%; pest or weed control at 15.625 g/ha [9]: 50%; pest or weed control at 62.5 g/ha [9]: 80%; pest or weed control at 250 g/ha [9]: 80%; pest or weed control at 15.625 g/ha [10]: 0%; pest or weed control at 62.5 g/ha [10]: 40%; pest or weed control at 250 g/ha [10]: 80%; pest or weed control at 15.625 g/ha [11]: 30%; pest or weed control at 62.5 g/ha [11]: 70%; pest or weed control at 250 g/ha [11]: 80%; pest or weed control at 15.625 g/ha [12]: 60%; pest or weed control at 62.5 g/ha [12]: 80%; pest or weed control at 250 g/ha [12]: 90% |
